Assay results: ChEMBL document CHEMBL5608173, “Discovery of novel natural-product-derived mutant isocitrate dehydrogenases 1 inhibitors: Structure-based virtual screening, biological evaluation and structure-activity relationship study” (Eur J Med Chem, 2024)

System: HT-1080
Experiment: Cell cycle arrest in human HT-1080 cells assessed as S phase cells at 10 uM incubated for 24 hrs by PI staining based flow cytometric analysis (reference value: 18.3 %)
Type: functional

Compound: COc1cc(O)c(-c2cc(-c3ccc(O)cc3)nc(N3CCNCC3)n2)cc1CC=C(C)C
- Activity: 51.6%
